# Source: ChEMBL document CHEMBL3045439, “Isoforms of the heteropteran Nezara viridula ecdysone receptor: protein characterisation, RH5992 insecticide binding and homology modelling” (Pest Manag Sci, 2011)
# Tests used:
# Assay type in all cases: protein-complex assay
# [1] = target: T1, Ecdysone receptor (Drosophila melanogaster, UniProt P20153+P34021); assay: Binding affinity to Drosophila melanogaster EcR
# T1 sequence (P34021 whole entry): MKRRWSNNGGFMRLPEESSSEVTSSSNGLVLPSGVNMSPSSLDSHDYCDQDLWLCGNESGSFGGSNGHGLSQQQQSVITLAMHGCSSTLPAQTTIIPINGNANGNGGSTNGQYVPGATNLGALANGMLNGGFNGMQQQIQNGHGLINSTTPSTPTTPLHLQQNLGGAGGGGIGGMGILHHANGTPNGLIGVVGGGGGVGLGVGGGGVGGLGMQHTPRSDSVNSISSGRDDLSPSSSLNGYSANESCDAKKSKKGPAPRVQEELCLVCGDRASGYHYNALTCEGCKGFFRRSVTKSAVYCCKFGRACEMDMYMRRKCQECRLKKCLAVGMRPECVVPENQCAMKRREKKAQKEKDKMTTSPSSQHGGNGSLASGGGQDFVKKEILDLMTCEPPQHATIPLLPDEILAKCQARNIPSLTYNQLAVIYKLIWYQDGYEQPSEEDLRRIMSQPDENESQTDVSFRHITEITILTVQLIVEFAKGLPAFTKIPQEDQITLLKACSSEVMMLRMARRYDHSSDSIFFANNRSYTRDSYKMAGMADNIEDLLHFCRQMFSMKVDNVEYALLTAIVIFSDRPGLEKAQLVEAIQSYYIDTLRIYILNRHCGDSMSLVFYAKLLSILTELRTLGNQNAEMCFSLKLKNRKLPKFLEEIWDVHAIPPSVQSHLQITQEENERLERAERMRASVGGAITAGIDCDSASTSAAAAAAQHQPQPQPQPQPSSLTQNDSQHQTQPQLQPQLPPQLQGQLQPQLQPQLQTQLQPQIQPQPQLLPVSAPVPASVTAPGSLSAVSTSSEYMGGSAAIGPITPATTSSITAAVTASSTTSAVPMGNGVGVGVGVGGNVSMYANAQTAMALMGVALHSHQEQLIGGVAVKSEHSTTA
# T1 sequence (P20153 whole entry): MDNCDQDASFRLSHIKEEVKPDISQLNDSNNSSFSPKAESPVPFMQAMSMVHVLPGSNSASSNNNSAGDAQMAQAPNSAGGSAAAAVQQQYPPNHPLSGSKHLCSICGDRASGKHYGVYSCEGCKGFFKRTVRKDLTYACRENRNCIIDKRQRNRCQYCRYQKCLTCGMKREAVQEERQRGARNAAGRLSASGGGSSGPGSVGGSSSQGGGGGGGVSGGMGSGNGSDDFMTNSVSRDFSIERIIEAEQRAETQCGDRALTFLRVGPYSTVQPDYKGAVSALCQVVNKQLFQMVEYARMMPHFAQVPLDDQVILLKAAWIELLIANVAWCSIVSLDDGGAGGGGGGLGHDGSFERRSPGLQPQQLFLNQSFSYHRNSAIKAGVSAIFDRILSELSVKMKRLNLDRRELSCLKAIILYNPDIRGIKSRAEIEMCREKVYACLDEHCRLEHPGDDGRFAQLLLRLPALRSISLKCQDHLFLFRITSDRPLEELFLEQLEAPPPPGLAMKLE
# [2] = target: T2, Ecdysone receptor (Leptinotarsa decemlineata, UniProt Q4W6C8+Q4W6D0); assay: Binding affinity to Leptinotarsa decemlineata EcR
# T2 sequence (Q4W6D0 whole entry): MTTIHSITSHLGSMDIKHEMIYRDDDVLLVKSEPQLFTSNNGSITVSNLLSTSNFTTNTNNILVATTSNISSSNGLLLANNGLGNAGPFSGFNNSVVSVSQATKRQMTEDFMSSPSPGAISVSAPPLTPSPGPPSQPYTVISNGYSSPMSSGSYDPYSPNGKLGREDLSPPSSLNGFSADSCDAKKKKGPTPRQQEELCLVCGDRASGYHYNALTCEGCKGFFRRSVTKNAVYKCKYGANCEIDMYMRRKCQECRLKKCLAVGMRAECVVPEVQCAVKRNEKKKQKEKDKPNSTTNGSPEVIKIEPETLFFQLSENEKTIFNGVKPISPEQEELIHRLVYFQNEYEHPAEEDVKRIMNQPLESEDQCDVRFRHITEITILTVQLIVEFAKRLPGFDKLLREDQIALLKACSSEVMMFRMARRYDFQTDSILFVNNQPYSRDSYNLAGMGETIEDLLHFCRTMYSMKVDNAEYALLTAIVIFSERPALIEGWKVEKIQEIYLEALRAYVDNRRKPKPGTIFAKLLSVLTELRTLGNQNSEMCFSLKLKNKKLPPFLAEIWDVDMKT
# T2 sequence (Q4W6C8 whole entry): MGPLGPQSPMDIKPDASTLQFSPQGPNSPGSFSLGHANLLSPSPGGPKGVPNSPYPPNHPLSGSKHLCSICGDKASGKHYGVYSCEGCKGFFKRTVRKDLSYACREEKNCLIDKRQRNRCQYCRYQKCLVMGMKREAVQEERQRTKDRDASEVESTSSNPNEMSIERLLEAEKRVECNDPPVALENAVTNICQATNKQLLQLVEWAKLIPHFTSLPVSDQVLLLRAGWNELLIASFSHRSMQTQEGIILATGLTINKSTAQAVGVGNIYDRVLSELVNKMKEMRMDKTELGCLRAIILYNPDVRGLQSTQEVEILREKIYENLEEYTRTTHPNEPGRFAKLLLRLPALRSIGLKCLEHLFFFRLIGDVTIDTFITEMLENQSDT
# [3] = target: T3, Ecdysone receptor (Nezara viridula, UniProt E5L6Y0+E5L6Y1); assay: Binding affinity to Nezara viridula EcR
# T3 sequence (E5L6Y1 whole entry): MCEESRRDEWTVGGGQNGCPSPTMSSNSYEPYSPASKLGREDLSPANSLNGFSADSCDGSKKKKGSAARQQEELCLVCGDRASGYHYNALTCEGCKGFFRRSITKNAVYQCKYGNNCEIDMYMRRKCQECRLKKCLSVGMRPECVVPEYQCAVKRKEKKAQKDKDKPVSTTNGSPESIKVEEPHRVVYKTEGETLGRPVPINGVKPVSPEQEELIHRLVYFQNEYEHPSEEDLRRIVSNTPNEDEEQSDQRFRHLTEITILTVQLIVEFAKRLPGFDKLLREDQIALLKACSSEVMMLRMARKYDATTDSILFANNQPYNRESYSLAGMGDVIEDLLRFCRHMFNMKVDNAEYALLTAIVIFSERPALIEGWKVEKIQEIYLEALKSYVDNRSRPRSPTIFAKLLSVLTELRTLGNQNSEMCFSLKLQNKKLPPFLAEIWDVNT
# T3 sequence (E5L6Y0 whole entry): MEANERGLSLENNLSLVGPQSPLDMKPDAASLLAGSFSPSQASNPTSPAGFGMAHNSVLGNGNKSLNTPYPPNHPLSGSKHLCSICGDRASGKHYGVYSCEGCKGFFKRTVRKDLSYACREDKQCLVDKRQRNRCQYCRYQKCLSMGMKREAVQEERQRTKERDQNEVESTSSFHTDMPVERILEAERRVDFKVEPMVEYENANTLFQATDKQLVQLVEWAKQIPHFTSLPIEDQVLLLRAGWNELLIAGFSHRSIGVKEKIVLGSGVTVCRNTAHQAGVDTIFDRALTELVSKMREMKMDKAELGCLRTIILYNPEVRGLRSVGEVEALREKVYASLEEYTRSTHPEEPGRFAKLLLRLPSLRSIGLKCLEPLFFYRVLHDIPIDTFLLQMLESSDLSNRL
IC50 [1] [µM],IC50 [2] [µM],IC50 [3] [µM],Structure (SMILES),Ki [1] [µM],Ki [2] [µM],Ki [3] [µM]
0.0457,0.437,1.05,CC(C)(O)CC[C@@H](O)[C@](C)(O)[C@H]1CC[C@@]2(O)C3=CC(=O)[C@@H]4C[C@@H](O)[C@@H](O)C[C@]4(C)[C@H]3CC[C@]12C [20-HYDROXYECDYSONE],,,
,,,CCc1ccc(C(=O)NN(C(=O)c2cc(C)cc(C)c2)C(C)(C)C)cc1 [TEBUFENOZIDE],0.251,2.51,25.1
